From US12661353B2, “SPT5 inhibitors and uses thereof” (Yeda Research and Development Co. Ltd., priority 2020, dated 2026)

Legend:
[1] = biological target: T1, endogenous Spt4/Spt5-Pol II complex (Homo sapiens, UniProt O00267+P24928); assay: Co-immunoprecipitation of endogenous Spt4/Spt5-Pol II complex, HeLa lysates; format: binding; settings: 50 μM
T1 construct: endogenous in cells; host or cells: HeLa cell lysate, immunoprecipitated with anti-Spt5 antibody
Method: Co-immunoprecipitation (CO-IP)—HeLa cells were detached from a 10 cm dish with ice-cold PBS and a cell scraper, centrifuged for 5 minutes at 2,000 rpm and re-suspended in 200 μl lysis buffer (20 mM Tris-HCl pH 8, 400 mM NaCl, 2 mM EDTA, 0.5% NP-40, 10% glycerol) to which a protease inhibitor cocktail (1:100) and PMSF (200 μM) were freshly added. The lysates were rotated for 10 minutes at 4° C.; and centrifuged for 15 minutes at 13,000 rpm. Following, the supernatants were diluted with lysis buffer without NaCl to reach a final concentration of 100 mM NaCl. Cell lysates were then incubated at 4° C. overnight with an anti-Spt5 antibody (Tadashi Wada et al., 1998 Genes and Development. PMID: 9450929) or rabbit IgG (SC-2025, Santa Cruz Biotechnology), followed by 2 hours incubation at 4° C. with Protein A/G Sepharose beads (GE Healthcare). Following, the samples were washed 3 times and incubated for 2 hours at 4° C. with DMSO (vehicle control) or the indicated compound. The immune-precipitated proteins were detected by SDS-PAGE followed by western blot using an anti-Spt5, anti-Pol II (ab817, Abcam) or anti-Spt4 (Kim D K. et al, Genes to cells 2003 PMID: 12653964).
In the next step, co-immunoprecipitation in the presence of SPI-21 or SPI-18 was performed to test their effect of endogenous Spt4/Spt5-Pol II complex. […]

[2] = test system: replication-dependent histone genes; assay: RNA-seq after 24-h treatment: replication-dependent histone genes; format: cell-based, human; parameters: HIST1H2AH level, RNA-seq / HIST1H2AI level, RNA-seq / HIST1H2AK level, RNA-seq / HIST1H2AL level, RNA-seq / HIST1H2BF level, RNA-seq / HIST1H3A level, RNA-seq / HIST1H3B level, RNA-seq / HIST1H3D level, RNA-seq: scale not given here; settings: SPI-21 24 h
Method: High-throughput sequencing of the total, labeled and Run-On transcripts (RNA-Seq and Gro-seq)—_The RNA-Seq libraries were prepared by the Genomics unit in The Nancy and Stephen Grand Israel National Center for Personalized Medicine (G-INCPM, Weizmann Institute of Science). Samples from 2-hour SPI treatment were prepared using in-house mRNA Seq protocol and polyA capturing and those from 24-hpur and 4sU treatments were prepared using the same protocol w/o PolyA capture (with random hexamers), and sequenced using an Illumina HiSeq 2500 system yielding about 30M SE reads of 61 bases. The GRO-seq RNA samples were reverse transcribed and amplified (15 cycles) using in-house mRNA Seq protocol w/o PolyA capture (with random hexamers) and sequenced in one lane using an Illumina HiSeq High Output (480 million reads, yielding more than 100M SE reads of 47 bases per sample). Each RNA-Seq analysis was carried out using two independent replicates.
RNA-Seq and GRO-seq Bioinformatics analysis—_For the analysis of the 24 h, 4sU and GRO-seq data, we used the RNA-Seq pipeline of UTAP (Kohen et al. 2019) to determine the differentially expressed genes. For the 2-hour data, reads were mapped to the H. sapiens GRCh38 reference genome using STAR (Dobin et al., 2013) and expression levels for each gene were quantified using htseq-count (Anders et al., 2015). Differentially expressed genes were identified using DESeq2 (Love et al., 2014). […] The reads coverage was calculated using bed files containing the desired genomic regions and orientation (awk command) and the bedtools coverage tool (Quinlan et al., 2010).
Since the RNA-seq following treatment with SPI-21 detects only polyadenylated transcripts and the treatment was effected for 2 hours, during which only a fraction of cells is in S-phase, an effect on histone genes was not found. Thus, to investigate further the regulation of histone genes by Spt5 using the identified SPIs, cells were treated for 24 hours with SPI-21 or SPI-18, to allow all cells to pass S-phase at least once. Following, mRNA was extracted and cDNA was prepared using random hexamers and the levels of 4 histone genes were determined. […] Spt5 requirement for expression of histone genes cannot be explained by a positive effect on elongation or mRNA processing since histone genes are very short and are intron-less. […] To resolve the discrepancy between the effect of Spt5 inhibition on steady-state levels and synthesis rate, the possibility that Spt5 is required for the processing of histone mRNAs was considered. In addition to the conserved stem-loop, histone genes have a canonical polyadenylation signal downstream of the stem-loop structure (FIG. 5B). It was therefore considered that Spt5 controls the choice between 3′ end processing via the stem-loop pathway or the polyadenylation pathway of histone pre-mRNAs. To this end, cDNA prepared by random hexamer and Poly-T the ratio between total and poly-A tailed histone genes was determined. […] Thus, the reduction in the histone gene expression upon Spt5 inhibition may be associated, at least in part, to a defect in 3′ end processing.

Compound: COc1ccc(C=CC(=O)c2cc(O)ccc2O)cc1 [SPI-21]
- effect on Spt5-Pol II binding (co-immunoprecipitation) [1]: did not disrupt Spt5-Pol II binding
- HIST1H1B level, RNA-seq [2]: 0.4
- HIST1H1E level, RNA-seq [2]: 0.5
- HIST1H2AG level, RNA-seq [2]: 0.4
- HIST1H2AH level, RNA-seq [2]: 0.5
- HIST1H2AI level, RNA-seq [2]: 0.5
- HIST1H2AK level, RNA-seq [2]: 0.6
- HIST1H2AL level, RNA-seq [2]: 0.5
- HIST1H2BF level, RNA-seq [2]: 0.5
- HIST1H3A level, RNA-seq [2]: 0.4
- HIST1H3B level, RNA-seq [2]: 0.5
- HIST1H3D level, RNA-seq [2]: 0.4
- HIST1H3F level, RNA-seq [2]: 0.5
- HIST1H3G level, RNA-seq [2]: 0.5
- HIST1H4A level, RNA-seq [2]: 0.5
- HIST1H4B level, RNA-seq [2]: 0.5
- HIST1H4C level, RNA-seq [2]: 0.7
- HIST1H4D level, RNA-seq [2]: 0.5
- HIST1H4H level, RNA-seq [2]: 0.7
- HIST2H2AC level, RNA-seq [2]: 0.5
- HIST2H3D level, RNA-seq [2]: 0.3

Compound: Nc1ccccc1SC(CC(=O)c1cccs1)c1cccs1 (stereo not shown) [SPI-18]
- effect on Spt5-Pol II binding (co-immunoprecipitation) [1]: did not disrupt Spt5-Pol II binding
